Activity calls are given as the source filed them. For most assays here, no stated cut-off is given here; in the data, actives have a measured IC50 and inactives only a lower limit.
Columns and labels:
Assay type in all cases: functional
[1] = biological target: T1, Sentrin-specific protease 7 (Homo sapiens, UniProt Q9BQF6);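 further: Luminescence-based dose-response confirmation of ultra-high-throughput screening hits, measuring inhibition of SENP7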
T1 sequence (Q9BQF6 whole entry): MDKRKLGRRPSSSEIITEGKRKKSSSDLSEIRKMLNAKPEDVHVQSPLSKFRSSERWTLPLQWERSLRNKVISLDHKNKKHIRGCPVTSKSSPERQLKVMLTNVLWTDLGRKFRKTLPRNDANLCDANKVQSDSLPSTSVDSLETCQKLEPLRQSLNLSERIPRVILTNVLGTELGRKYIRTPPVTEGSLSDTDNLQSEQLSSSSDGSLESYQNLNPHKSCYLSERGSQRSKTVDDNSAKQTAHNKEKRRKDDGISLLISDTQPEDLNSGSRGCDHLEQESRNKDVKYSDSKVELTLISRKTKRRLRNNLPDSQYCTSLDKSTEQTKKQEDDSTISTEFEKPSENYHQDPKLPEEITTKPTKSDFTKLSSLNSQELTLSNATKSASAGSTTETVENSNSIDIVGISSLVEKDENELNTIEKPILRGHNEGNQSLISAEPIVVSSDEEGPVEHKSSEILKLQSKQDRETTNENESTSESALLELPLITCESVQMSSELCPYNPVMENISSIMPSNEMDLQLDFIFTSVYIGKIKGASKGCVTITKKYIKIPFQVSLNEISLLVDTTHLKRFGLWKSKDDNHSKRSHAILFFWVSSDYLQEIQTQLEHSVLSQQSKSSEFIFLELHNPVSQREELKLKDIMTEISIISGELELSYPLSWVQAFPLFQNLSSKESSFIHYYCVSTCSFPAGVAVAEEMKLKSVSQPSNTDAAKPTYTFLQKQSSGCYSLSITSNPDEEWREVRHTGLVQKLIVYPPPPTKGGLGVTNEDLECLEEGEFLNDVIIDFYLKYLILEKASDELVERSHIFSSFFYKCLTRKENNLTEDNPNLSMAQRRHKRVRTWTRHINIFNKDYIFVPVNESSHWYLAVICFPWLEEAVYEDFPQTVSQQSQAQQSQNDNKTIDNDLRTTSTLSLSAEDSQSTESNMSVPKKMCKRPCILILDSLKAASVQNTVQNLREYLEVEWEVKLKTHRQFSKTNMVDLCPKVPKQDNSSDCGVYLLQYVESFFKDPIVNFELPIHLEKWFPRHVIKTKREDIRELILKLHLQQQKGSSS

[2] = biological target: T2, Sentrin-specific protease 8 (Homo sapiens, UniProt Q96LD8);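 further: luminescence read-out of SENP8 inhibition, dose-response confirmation following an ultra-high-throughput screen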
T2 sequence (Q96LD8 whole entry): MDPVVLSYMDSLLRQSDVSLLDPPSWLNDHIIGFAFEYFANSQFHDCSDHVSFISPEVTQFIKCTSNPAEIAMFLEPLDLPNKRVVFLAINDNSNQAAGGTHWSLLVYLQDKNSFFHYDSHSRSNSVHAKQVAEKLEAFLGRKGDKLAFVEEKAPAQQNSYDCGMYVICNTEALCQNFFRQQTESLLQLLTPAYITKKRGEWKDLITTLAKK

Protein RecA = biological target: T3, Protein RecA (Mycobacterium tuberculosis, UniProt P9WHJ3); experiment: Fluorescence Cell-Free Homogeneous Dose Retest to Identify Inhibitors of RecA-Intein Splicing Activity. [Related pubchem assays (depositor defined):AID2097, AID2223, AID489010, AID492950]
T3 sequence (P9WHJ3 whole entry): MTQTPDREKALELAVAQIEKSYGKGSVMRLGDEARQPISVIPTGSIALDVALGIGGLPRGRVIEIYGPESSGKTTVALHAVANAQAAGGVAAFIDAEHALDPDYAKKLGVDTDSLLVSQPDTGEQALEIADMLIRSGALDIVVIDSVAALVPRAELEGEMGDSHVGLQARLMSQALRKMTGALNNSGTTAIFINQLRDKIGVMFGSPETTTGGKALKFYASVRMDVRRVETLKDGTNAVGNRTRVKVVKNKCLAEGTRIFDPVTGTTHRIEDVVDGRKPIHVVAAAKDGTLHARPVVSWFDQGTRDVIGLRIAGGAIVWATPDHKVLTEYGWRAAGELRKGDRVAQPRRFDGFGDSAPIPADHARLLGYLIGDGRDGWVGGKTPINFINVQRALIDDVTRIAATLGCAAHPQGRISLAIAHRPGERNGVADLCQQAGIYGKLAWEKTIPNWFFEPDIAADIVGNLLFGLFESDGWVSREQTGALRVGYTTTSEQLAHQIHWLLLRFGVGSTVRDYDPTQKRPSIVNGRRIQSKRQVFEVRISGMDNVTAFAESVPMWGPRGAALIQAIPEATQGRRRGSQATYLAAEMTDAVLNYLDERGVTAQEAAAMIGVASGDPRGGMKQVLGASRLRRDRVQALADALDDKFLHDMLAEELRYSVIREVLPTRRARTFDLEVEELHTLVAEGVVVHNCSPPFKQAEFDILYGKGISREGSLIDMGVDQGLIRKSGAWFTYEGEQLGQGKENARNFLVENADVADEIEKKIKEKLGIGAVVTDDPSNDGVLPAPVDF

COc1ccc(NC(=S)Nc2ccc3nsnc3c2)cc1
active: IC50 [1] 4.08 µM | IC50 [2] 2.74 µM | EC50 (Protein RecA) 17.5 µM

CC(C)(C)c1cc[n+](C2=C([N-]S(=O)(=O)c3ccccc3)C(=O)c3ccccc3C2=O)cc1
active: IC50 [1] 13.5 µM | IC50 [2] 13.6 µM | EC50 (Protein RecA) 9.39 µM

O=C1C(=O)c2ccccc2C(O)=C1CCCCl
active: IC50 [1] 9.05 µM | IC50 [2] 14.4 µM | EC50 (Protein RecA) 6.39 µM

O=C1C=C(Nc2ccccc2C(=O)O)c2ccccc2C1=O
active: IC50 [1] 7.86 µM | IC50 [2] 3.3 µM | EC50 (Protein RecA) 2.34 µM

— ChEMBL document CHEMBL1201862, “PubChem BioAssay data set” (2004)
